How the values were obtained:
[1] = molecular target: human D2-long dopamine receptor (Homo sapiens (Human), UniProt P14416); experiment: Radioligand binding (125I-IABN competition), D2; conditions: HEK cell membranes expressing human D2-long
Protocol: (§1) The affinities of the target compounds were determined using radioligand binding experiments. […] Competition curves were modeled for a single site. Data from competition dose-response curves were analyzed using Tablecurve program (Jandel). IC50 values were converted to equilibrium dissociation constants (Ki values) using the Cheng and Prusoff correction.

[2] = molecular target: human D3 dopamine receptor (Homo sapiens (Human), UniProt P35462); experiment: Radioligand binding (125I-IABN competition), D3; conditions: for Ki: 125I-IABN competition, HEK cell membranes expressing human D3; for D2/D3 (D3 selectivity ratio, D2 Ki/D3 Ki): calculated D2 Ki/D3 Ki
Chain of human D3 dopamine receptor (P35462 whole entry): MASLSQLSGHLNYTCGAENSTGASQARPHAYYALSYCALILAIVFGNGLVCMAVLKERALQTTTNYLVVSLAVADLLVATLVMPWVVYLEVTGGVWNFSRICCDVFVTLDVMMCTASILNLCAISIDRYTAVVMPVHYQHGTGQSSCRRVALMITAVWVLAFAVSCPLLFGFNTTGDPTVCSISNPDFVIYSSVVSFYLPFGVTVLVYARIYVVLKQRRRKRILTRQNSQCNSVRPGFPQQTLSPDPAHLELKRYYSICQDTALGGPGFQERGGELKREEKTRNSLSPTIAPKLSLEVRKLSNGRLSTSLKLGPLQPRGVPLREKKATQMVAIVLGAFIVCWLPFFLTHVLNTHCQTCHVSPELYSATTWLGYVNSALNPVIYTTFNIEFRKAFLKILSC
Protocol: as §1

Chain of human D2-long dopamine receptor (P14416 whole entry): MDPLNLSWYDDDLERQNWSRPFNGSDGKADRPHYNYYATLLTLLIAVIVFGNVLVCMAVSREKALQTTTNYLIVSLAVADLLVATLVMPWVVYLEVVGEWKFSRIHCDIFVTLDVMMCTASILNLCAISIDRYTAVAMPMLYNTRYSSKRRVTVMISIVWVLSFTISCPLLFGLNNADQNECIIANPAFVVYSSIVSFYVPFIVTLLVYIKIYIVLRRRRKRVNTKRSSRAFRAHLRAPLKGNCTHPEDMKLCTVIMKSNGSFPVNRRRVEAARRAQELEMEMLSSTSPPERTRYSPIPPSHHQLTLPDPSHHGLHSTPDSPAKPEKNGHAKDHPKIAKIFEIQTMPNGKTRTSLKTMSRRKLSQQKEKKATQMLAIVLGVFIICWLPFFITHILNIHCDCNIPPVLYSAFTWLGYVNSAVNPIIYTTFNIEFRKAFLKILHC

| SMILES | Ki [1] | Ki [2] | D2/D3 (D3 selectivity ratio, D2 Ki/D3 Ki) [2] |
| --- | --- | --- | --- |
| CC(C)(C)c1nc(N2CCN(CCCCNC(=O)N3CCN(CC=Cc4ccccc4)CC3)CC2)cc(C(F)(F)F)n1 [Compound 74, N-(4-(4-(2-(tert-Butyl)-6-(trifluoromethyl)pyrimidin-4-yl)piperazin-1-yl)butyl)-4-cinnamylpiperazine-1-carboxamide] | 585 ± 72.7 nM | 66.8 ± 16.3 nM | 9 |
| CC(C)(C)c1nc(N2CCN(CCCCNC(=O)N3CCC(N4CCCCC4)CC3)CC2)cc(C(F)(F)F)n1 [Compound 75, N-(4-(4-(2-(tert-Butyl)-6-(trifluoromethyl)pyrimidin-4-yl)piperazin-1-yl)butyl)-[1,4′-bipiperidine]-1′-carboxamide] | 59.3 ± 7.5 nM | 9.9 ± 1.7 nM | 6 |
| CN1CCC(N2CCN(C(=O)NCCCCN3CCN(c4cc(C(F)(F)F)nc(C(C)(C)C)n4)CC3)CC2)CC1 [Compound 76, N-(4-(4-(2-(tert-Butyl)-6-(trifluoromethyl)pyrimidin-4-yl)piperazin-1-yl)butyl)-4-(1-methylpiperidin-4-yl)piperazine-1-carboxamide] | 125 ± 26.6 nM | 18 ± 3 nM | 7 |
| CC(C)(C)c1nc(N2CCN(CCCCNC(=O)N3CCN(S(=O)(=O)c4ccccc4)CC3)CC2)cc(C(F)(F)F)n1 [Compound 77, N-(4-(4-(2-(tert-Butyl)-6-(trifluoromethyl)pyrimidin-4-yl)piperazin-1-yl)butyl)-4-(phenylsulfonyl)piperazine-1-carboxamide] | 981 ± 73.9 nM | 138 ± 28.8 nM | 7 |
| CC(C)(C)c1cc(N2CCN(CCCCNC(=O)N3CCN(S(=O)(=O)c4ccccc4)CC3)CC2)nc(C(C)(C)C)n1 [Compound 78, N-(4-(4-(2,6-Di-tert-butylpyrimidin-4-yl)piperazin-1-yl)butyl)-4-(phenylsulfonyl)piperazine-1-carboxamide] | 448 ± 75.9 nM | 29 ± 4.8 nM | 15 |
| CC(C)(C)c1nc(N2CCN(CCCCNC(=O)N3CCC(O)(c4ccc(Cl)cc4)CC3)CC2)cc(C(F)(F)F)n1 [Compound 79, N-(4-(4-(2-(tert-Butyl)-6-(trifluoromethyl)pyrimidin-4-yl)piperazin-1-yl)butyl)-4-(4-chlorophenyl)-4-hydroxypiperidine-1-carboxamide] | 834 ± 133 nM | 51.8 ± 11.4 nM | 16 |
| CC(C)(C)c1nc(N2CCN(CCCCNC(=O)N3CCN(C4CC4)CC3c3ccccc3)CC2)cc(C(F)(F)F)n1 (stereo not drawn) [Compound 80, N-(4-(4-(2-(tert-Butyl)-6-(trifluoromethyl)pyrimidin-4-yl)piperazin-1-yl)butyl)-4-cyclopropyl-2-phenylpiperazine-1-carboxamide] | 863 ± 135 nM | 118 ± 20.1 nM | 7 |
| CC(C)(C)c1nc(N2CCN(CCCCNC(=O)N3CCCN(c4ccccc4)CC3)CC2)cc(C(F)(F)F)n1 [Compound 81, N-(4-(4-(2-(tert-Butyl)-6-(trifluoromethyl)pyrimidin-4-yl)piperazin-1-yl)butyl)-4-phenyl-1,4-diazepane-1-carboxamide] | 507 ± 16.6 nM | 44.2 ± 8.2 nM | 11 |
| CC(C)(C)c1nc(N2CCN(CCCCNC(=O)N3CCCC(c4ccccc4)CC3)CC2)cc(C(F)(F)F)n1 (stereo not drawn) [Compound 82, N-(4-(4-(2-(tert-Butyl)-6-(trifluoromethyl)pyrimidin-4-yl)piperazin-1-yl)butyl)-4-phenylazepane-1-carboxamide] | 668 ± 135 nM | 129 ± 21.9 nM | 5 |
| O=C(NCCCCN1CCN(c2ccnc3cc(C(F)(F)F)ccc23)CC1)N1CCN(c2ccccc2)CC1 [Compound 83, 4-Phenyl-N-(4-(4-(7-(trifluoromethyl)quinolin-4-yl)piperazin-1-yl)butyl)piperazine-1-carboxamide] | 1550 ± 349 nM | 112 ± 19.1 nM | 14 |
| O=C(NCCCCN1CCN(c2ccc3ccccc3n2)CC1)N1CCN(c2ccccc2)CC1 [Compound 84, 4-Phenyl-N-(4-(4-(quinolin-2-yl)piperazin-1-yl)butyl)piperazine-1-carboxamide] | 2610 ± 79.1 nM | 95.7 ± 14.6 nM | 27 |
| O=C(NCCCCN1CCN(c2ccnc3cc(Cl)ccc23)CC1)N1CCC(c2ccccc2)CC1 [Compound 85, N-(4-(4-(7-Chloroquinolin-4-yl)piperazin-1-yl)butyl)-4-phenylpiperidine-1-carboxamide] | 2790 ± 942 nM | 87.9 ± 22.8 nM | 32 |
| CC(C)(C)c1cc(N2CCN(CCCCNC(=O)N3CCN(c4ccccc4)CC3)CC2)cc(C(C)(C)C)c1 [Compound 86, N-(4-(4-(3,5-Di-tert-butylphenyl)piperazin-1-yl)butyl)-4-phenylpiperazine-1-carboxamide] | 1850 ± 197 nM | 110 ± 11.6 nM | 17 |
| Cc1nnc2n1CCN(C(=O)NCCCCN1CCN(c3cc(C(F)(F)F)nc(C(C)(C)C)n3)CC1)C2 [Compound 87, N-(4-(4-(2-(tert-Butyl)-6-(trifluoromethyl)pyrimidin-4-yl)piperazin-1-yl)butyl)-3-methyl-5,6-dihydro-[1,2,4]triazolo[4,3-a]pyrazine-7(8H)-carboxamide] | 382 ± 91 nM | 28.3 ± 5.3 nM | 14 |
| Cc1nc(N2CCN(CCCCNC(=O)N3CCn4c(C)nnc4C3)CC2)cc(C(C)(C)C)n1 [Compound 88, N-(4-(4-(6-(tert-Butyl)-2-methylpyrimidin-4-yl)piperazin-1-yl)butyl)-3-methyl-5,6-dihydro-[1,2,4]triazolo[4,3-a]pyrazine-7(8H)-carboxamide] | 10500 ± 2240 nM | 668 ± 122 nM | 16 |
| CC(C)(C)c1nc(N2CCN(CCCCNC(=O)N3CCc4[nH]c5ccccc5c4C3)CC2)cc(C(F)(F)F)n1 [Compound 89, N-(4-(4-(2-(tert-Butyl)-6-(trifluoromethyl)pyrimidin-4-yl)piperazin-1-yl)butyl)-3,4-dihydro-1H-pyrido[4,3-b]indole-2(5H)-carboxamide] | 1180 ± 180 nM | 110 ± 21.6 nM | 11 |
| Cc1ccc2[nH]c3c(c2c1)CN(C(=O)NCCCCN1CCN(c2cc(C(F)(F)F)nc(C(C)(C)C)n2)CC1)CC3 [Compound 90, N-(4-(4-(2-(tert-Butyl)-6-(trifluoromethyl)pyrimidin-4-yl)piperazin-1-yl)butyl)-8-methyl-3,4-dihydro-1H-pyrido[4,3-b]indole-2(5H)-carboxamide] | 1340 ± 166 nM | 128 ± 30.3 nM | 10 |
| CC(C)(C)c1nc(N2CCN(CCCCNC(=O)N3CCc4[nH]c5ccc(Cl)cc5c4C3)CC2)cc(C(F)(F)F)n1 [Compound 91, N-(4-(4-(2-(tert-Butyl)-6-(trifluoromethyl)pyrimidin-4-yl)piperazin-1-yl)butyl)-8-chloro-3,4-dihydro-1H-pyrido[4,3-b]indole-2(5H)-carboxamide] | 1210 ± 211 nM | 200 ± 47.6 nM | 6 |
| COc1ccc2[nH]c3c(c2c1)CN(C(=O)NCCCCN1CCN(c2cc(C(F)(F)F)nc(C(C)(C)C)n2)CC1)CC3 [Compound 92, N-(4-(4-(2-(tert-Butyl)-6-(trifluoromethyl)pyrimidin-4-yl)piperazin-1-yl)butyl)-8-methoxy-3,4-dihydro-1H-pyrido[4,3-b]indole-2(5H)-carboxamide] | 1350 ± 241 nM | 166 ± 4.1 nM | 8 |
| CC(C)(C)c1nc(N2CCN(CCCCNC(=O)N3CCc4[nH]c5ccc(C(F)(F)F)cc5c4C3)CC2)cc(C(F)(F)F)n1 [Compound 93, N-(4-(4-(2-(tert-Butyl)-6-(trifluoromethyl)pyrimidin-4-yl)piperazin-1-yl)butyl)-8-(trifluoromethyl)-3,4-dihydro-1H-pyrido[4,3-b]indole-2(5H)-carboxamide] | 560 ± 53 nM | 84.8 ± 21.3 nM | 7 |
| Cc1ccc2[nH]c3c(c2c1)CN(C(=O)NCCCCN1CCN(c2cc(C(C)(C)C)nc(C)n2)CC1)CC3 [Compound 94, N-(4-(4-(6-(tert-Butyl)-2-methylpyrimidin-4-yl)piperazin-1-yl)butyl)-8-methyl-3,4-dihydro-1H-pyrido[4,3-b]indole-2(5H)-carboxamide] | 5480 ± 1150 nM | 219 ± 23.8 nM | 25 |
| Cc1nc(N2CCN(CCCCNC(=O)N3CCc4[nH]c5ccc(Cl)cc5c4C3)CC2)cc(C(C)(C)C)n1 [Compound 95, N-(4-(4-(6-(tert-Butyl)-2-methylpyrimidin-4-yl)piperazin-1-yl)butyl)-8-chloro-3,4-dihydro-1H-pyrido[4,3-b]indole-2(5H)-carboxamide] | 5560 ± 1340 nM | 215 ± 45.5 nM | 26 |
| COc1ccc2[nH]c3c(c2c1)CN(C(=O)NCCCCN1CCN(c2cc(C(C)(C)C)nc(C)n2)CC1)CC3 [Compound 96, N-(4-(4-(6-(tert-Butyl)-2-methylpyrimidin-4-yl)piperazin-1-yl)butyl)-8-methoxy-3,4-dihydro-1H-pyrido[4,3-b]indole-2(5H)-carboxamide] | > 5000 nM | 74.9 ± 15 nM | >66 |
| CC(C)(C)c1cc(N2CCN(CCCCNC(=O)N3CCc4[nH]c5ccccc5c4C3)CC2)cc(C(C)(C)C)c1 [Compound 97, N-(4-(4-(3,5-Di-tert-butylphenyl)piperazin-1-yl)butyl)-3,4-dihydro-1H-pyrido[4,3-b]indole-2(5H)-carboxamide] | 2440 ± 175 nM | 245 ± 46.4 nM | 10 |
